Test results reported in US6110934A, “Substituted benzamide derivatives and their use as anticonvulsants” (SmithKline Beecham p.l.c., priority 1996, dated 2000).
Structures can show the parent of a compound that is named as a salt.

biological target: novel receptor obtainable from rat forebrain tissue; test: Radioligand binding assay, displacement of [3H]-Compound A; settings: competition with [3H]-Compound A (usually 20 nM), room temperature, 1 hour
Method: The affinity of test compounds to the novel receptor site is assessed as follows. Whole forebrain tissue is obtained from rats. The tissue is first homogenised in buffer (usually 50 mM Tris/HCl, pH 7.4). The homogenised tissue is washed by centrifugation and resuspension in the same buffer, then stored at -70° C. until used. […] The final concentration of [3H]-Compound A in the mixture is usually 20 nM. The mixture is incubated at room temperature for 1 hour. [3H]-Compound A bound to the tissue is then separated from unbound [3H]-Compound A by filtration through Watman GF/B glass fibre filters. The filters are then washed rapidly with ice-cold buffer. The amount of radioactivity bound to the tissue trapped on the filters is measured by addition of liquid scintillation cocktail to the filters followed by counting in a liquid scintillation counter. In order to determine the amount of "specific" binding of [3H]-Compound A, parallel assays are carried out as above in which [3H]-Compound A and tissue are incubated together in the presence of unlabelled Compound A (usually 3 μM). The amount of binding of [3H]-Compound A remaining in the presence of this unlabelled compound is defined as "non-specific" binding. This amount is subtracted from the total amount of [3H]-Compound A binding (i.e. that present in the absence of unlabelled compound) to obtain the amount of "specific" binding of [3H]-Compound A to the novel site. The affinity of the binding of test compounds to the novel site can be estimated by incubating together [3H]-Compound A and tissue in the presence of a range of concentrations of the compound to be tested. The decrease in the level of specific [3H]-Compound A binding as a result of competition by increasing concentrations of the compound under test is plotted graphically, and non-linear regression analysis of the resulthant curve is used to provide an estimate of compound affinity in terms of pKi value.

| Compound | pKi |
| --- | --- |
| CCOc1cc(OC)c(C(=O)Nc2cccc3c2CCN(C)C3)cc1Cl [Example 23, N-(2-Methyl-1,2,3,4-tetrahydroisoquinolin-5-yl)-5-chloro-4-ethoxy-2-methoxybenzamide] | greater than 7 |
| CCCOc1cc(N)c(Cl)cc1C(=O)Nc1cccc2c1CCN(C)C2 [Example 10, N-(2-Methyl-1,2,3,4-tetrahydroisoquinolin-5-yl)-4-amino-5-chloro-2-propoxy-benzamide] | greater than 7 |
| COc1cc(N)c(Cl)cc1C(=O)Nc1cccc2c1CCN(C)C2.Cl [Example 1, N-(2-Methyl-1,2,3,4-tetrahydroisoquinolin-5-yl)-4-amino-5-chloro-2-methoxy-benzamide Hydrochloride] | greater than 7 |
| COc1cc(OC)c(C(=O)Nc2cccc3c2CCNC3)cc1Cl [Example 19, N-(1,2,3,4-Tetrahydroisoquinolin-5-yl)-5-chloro-2,4-dimethoxybenzamide] | greater than 7 |
| COc1cc(OC)c(C(=O)Nc2cccc3c2CCN(C)C3)cc1Cl [Example 16, N-(2-Methyl-1,2;3,4-tetrahydroisoquinolin-5-yl)-5-chloro-2,4-dimethoxybenzamide] | greater than 7 |
| COc1cc(N)c(Br)cc1C(=O)Nc1cccc2c1CCN(C)C2 [Example 7, N-(2-Methyl-1,2,3,4-tetrahydroisoquinolin-5-yl)-4-amino-5-bromo-2-methoxybenzamide] | greater than 7 |
| COc1cc(N)c(I)cc1C(=O)Nc1cccc2c1CCN(C)C2 [Example 13, N-(2-Methyl-1,2,3,4-tetrahydroisoquinolin-5-yl)-4-amino-5-iodo-2-methoxybenzamide] | greater than 7 |
| COc1cc(OC)c(C(=O)Nc2cccc3c2CCN(C)C3)cc1Br [Example 17, N-(2-Methyl-1,2,3,4-tetrahydroisoquinolin-5-yl)-5-bromo-2,4-dimethoxybenzamide] | greater than 7 |
| COc1cc(C)c(Cl)cc1C(=O)Nc1cccc2c1CCN(C)C2 [Example 20, N-(2-Methyl-1,2,3,4-tetrahydroisoquinolin-5-yl)-5-chloro-2-methoxy-4-methylbenzamide] | greater than 7 |

Now from value to compound:

| pKi | Compound |
| --- | --- |
| greater than 7 | COc1ccc(C(=O)C(C)(C)C)cc1C(=O)Nc1cccc2c1CCN(C)C2.Cl [Example 50, N-(2-Methyl-1,2,3,4-tetrahydroisoquinolin-5-yl)-5-pivaloyl-2-methoxybenzamide, Hydrochloride] |
| greater than 7 | COc1cc(OC(C)C)c(C(C)=O)cc1C(=O)Nc1cccc2c1CCN(C)C2.Cl [Example 70, N-(2-Methyl-1,2,3,4-tetrahydroisoquinolin-5-yl)-2-methoxy-4-iso-propyloxy-5-acetyl-benzamide, Hydrochloride] |
| greater than 7 | COc1cc(OC(C)C)c(Br)cc1C(=O)Nc1cccc2c1CCN(C)C2.Cl [Example 45, N-(2-Methyl-1,2,3,4-tetrahydroisoquinolin-5-yl)-5-bromo-4-iso-propoxy-2-methoxybenzamide, Hydrochloride] |
| greater than 7 | COc1cc(OC)c(C(=O)Nc2ccc3c(c2)CN(C)CC3)cc1Br.Cl [Example 52, N-(2-Methyl-1,2,3,4-tetrahydroisoquinolin-7-yl)-5-bromo-2,4-dimethoxybenzamide, Hydrochloride Salt] |
| greater than 7 | COc1cc(C(C)C)c(C(F)(F)F)cc1C(=O)Nc1cccc2c1CCN(C)C2.Cl [Example 46, N-(2-Methyl-1,2,3,4-tetrahydroisoquinolin-5-yl)-4-iso-propyl-5-trifluoromethyl-2-methoxybenzamide, Hydrochloride] |
| greater than 7 | COc1cc(C(C)(C)C)ccc1C(=O)Nc1cccc2c1CCN(C)C2.Cl [Example 35, N-(2-Methyl-1,2,3,4-tetrahydroisoquinolin-5-yl)-4-tert-butyl-2-methoxybenzamide Hydrochloride] |
| greater than 7 | COc1cc(OC(C)C)c(Cl)cc1C(=O)Nc1cccc2c1CCN(C)C2.Cl [Example 71, N-(2-Methyl-1,2,3,4-tetrahydroisoquinolin-5-yl)-5-chloro-2-methoxy-4-iso-propoxybenzamide, Hydrochloride] |
| greater than 7 | CCc1cc(OC)c(C(=O)Nc2cccc3c2CCN(C)C3)cc1Cl [Example 37, N-(2-Methyl-1,2,3,4-tetrahydroisoquinolin-5-yl)-4-ethyl-2-methoxy-5-chloro Benzamide, Hydrochloride] |
| greater than 7 | COc1cc(C)c(Br)cc1C(=O)Nc1cccc2c1CCN(C)C2 [Example 25, N-(2-Methyl-1,2,3,4-tetrahydroisoquinolin-5-yl)-5-bromo-2-methoxy-4-methylbenzamide] |
| greater than 7 | COc1ccc(C(=O)C(C)C)cc1C(=O)Nc1cccc2c1CCN(C)C2 [Example 49, N-(2-Methyl-1,2,3,4-tetrahydroisoquinolin-5-yl) 5-iso-butyroyl-2-methoxy-benzamide Hydrochloride] |
| greater than 7 | CCc1cc(OC)c(C(=O)Nc2cccc3c2CCN(C)C3)cc1C(F)(F)F.Cl [Example 68, N-(2-Methyl-1,2,3,4-tetrahydroisoquinolin-5-yl)-4-ethyl-2-methoxy-5-trifluoromethylbenzamide, Hydrochloride] |
